Holding throughout (assay): growth of human tumour cells (NCI), 48 h
In experiment [1] the test system is DU-145 prostate.
Experiment [2] relates to SF-295 CNS.
The test system of experiment [3] is NCI-H226 lung.
The test system of experiment [4] is SF-268 CNS.
Experiment [5] concerns RPMI-8226 leukemia.
Experiment [6] concerns 786-0 renal.
Experiment [7] concerns UO-31 renal.
Experiment [8] deals with SK-MEL-5 melanoma.
Experiment [9] has as its system SNB-75 CNS.
Experiment [10] deals with HCT-116 colon.

The source of these data is PubChem BioAssay (NCI).

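Growth conditions: 96-well plates. Treatment: test compound, 48 hours, 5 concentrations. Analysis: linear interpolation between bracketing concentrations; unreached endpoints set to highest concentration. GI50 marks 50% less growth. TGI: total growth inhibition.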 Some results are limits rather than exact numbers.

Regarding `CN(C)CCCNC(=O)c1cc(NC(=O)c2cc(NC(=O)c3cc(NC(=O)CCc4c[nH]c5ccccc45)cn3C)cn2C)cn1C`, the GI50 in experiment [1], in experiment [2], in experiment [3], in experiment [4], in experiment [5] and in experiment [6] was above 100 µM throughout. Also, the GI50 in [7], in experiment [8], in [9] and in experiment [10] was above 100 µM each time. For the same compound, the TGI in experiment [1], in experiment [2], in [3], in experiment [4], in [5] and in [6] was above 100 µM throughout. For the same compound, the TGI in [7], in experiment [8], in [9] and in experiment [10] was above 100 µM in each case.
On to `Cc1cc(S(=O)(=O)Nc2nnc(-c3ccccc3)c(-c3ccccc3)n2)c(SCc2ccccc2)cc1Cl`, for which the GI50 in experiment [1] was 15.2 µM; in [2], 19.5 µM; in experiment [3], 27.7 µM; in experiment [4] it was 19.3 µM; in experiment [5] it was 11.5 µM; in experiment [6] it was 14.5 µM. Also, the GI50 was 26 µM in [7], 17 µM in experiment [8], 29.4 µM in experiment [9] and 19.8 µM in experiment [10]. The TGI in experiment [1] came to 30.7 µM; in experiment [2], 38.5 µM; in [3], 79.8 µM; in experiment [4], 39.9 µM; in experiment [5] it was 52.8 µM; in experiment [6], 29.8 µM. Moreover, the TGI in experiment [7] worked out at 73.5 µM; in experiment [8] it was 33.5 µM; in experiment [9] it was 49 µM; in [10] it was 38.9 µM.
As for `O=C1C(=O)c2ccccc2C(O)=C1C(CCc1ccccc1)C1=C(O)c2ccccc2C(=O)C1=O`, the TGI in [1] is 29.1 µM; in experiment [2], above 100 µM; in experiment [3], above 100 µM; in experiment [4], above 100 µM; in experiment [5], above 100 µM; in [6], above 100 µM. For the same compound, the TGI is above 100 µM in experiment [7], 30.9 µM in experiment [8], above 100 µM in experiment [9] and above 100 µM in [10].
On to `Cn1c(=O)c2[nH]c(CS(=O)(=O)Cc3nc4c([nH]3)c(=O)n(C)c(=O)n4C)nc2n(C)c1=O`, for which the TGI in [1], in [2], in [3], in [4], in experiment [5] and in experiment [6] was above 100 µM each time. The TGI in experiment [7], in experiment [8], in experiment [9] and in experiment [10] was above 100 µM in each case.
In the case of `O=C(Nc1ncc(Cc2ccccc2Cl)s1)c1ccc2c(c1)OCCO2`, the GI50 in experiment [1] was 0.384 µM; in experiment [2], 0.346 µM; in [3], 1.17 µM; in experiment [4], 1.8 µM; in experiment [5], 0.479 µM; in experiment [6] it was 0.574 µM. Also, the GI50 in [7] was 1.13 µM; in experiment [8] it was 0.334 µM; in experiment [9] it was 0.262 µM; in [10], 0.335 µM. The TGI is 17.5 µM in experiment [1]; 5.04 µM in experiment [2]; 8.45 µM in experiment [3]; above 100 µM in experiment [4]; above 100 µM in experiment [5]; above 100 µM in experiment [6]. In addition, the TGI in experiment [7] is above 100 µM; in experiment [8], 1.81 µM; in experiment [9], 6.55 µM; in [10], above 100 µM.
As to `C[C@]12CC[C@@H]3c4ccc(O)cc4CC[C@H]3[C@@H]1CC[C@@H]2NS(=O)(=O)Cc1ccc(Cl)cc1`, the GI50 in experiment [1] was 3.99 µM; in experiment [2] it was 1.72 µM; in experiment [3], 3.19 µM; in [4], 3.16 µM; in experiment [5], 3.14 µM; in experiment [6], 2.66 µM. For the same compound, the GI50 in [7] is 1.39 µM; in [8], 1.77 µM; in [9], 2.08 µM; in experiment [10], 1.92 µM. The TGI in [1] was found to be 16.8 µM; in experiment [2], 3.56 µM; in experiment [3], 12.6 µM; in experiment [4], 12.5 µM; in experiment [5], 15.5 µM; in experiment [6], 6.87 µM. Moreover, the TGI turned out to be 5.13 µM in experiment [7], 3.45 µM in experiment [8], 9.75 µM in [9] and 3.97 µM in [10].
As for `COc1ccc(/C=C\c2cc(OC)c(OC)c(OC)c2)cc1OCC(=O)Nc1nc2ccc(C(F)(F)F)cc2s1`, the GI50 in experiment [1] is 2.51 µM; in experiment [2] it was 3.36 µM; in experiment [3], 3.17 µM; in experiment [4], 3.85 µM; in [5], 5.48 µM; in experiment [6], 6.69 µM. For the same compound, the GI50 was 3.59 µM in experiment [7], 2.84 µM in experiment [8], 1.58 µM in experiment [9] and 3.29 µM in experiment [10]. Also, the TGI in experiment [1] was 6.56 µM; in experiment [2], above 100 µM; in [3], 31.3 µM; in experiment [4] it was 48.6 µM; in experiment [5], above 100 µM; in experiment [6], above 100 µM. Further, the TGI in [7] was above 100 µM; in experiment [8], 13.9 µM; in [9], 6.47 µM; in experiment [10], above 100 µM.
As for `O=C(Oc1ccc(CCl)cc1)c1ccccc1`, the GI50 in experiment [1] is 0.269 µM; in experiment [2], 0.185 µM; in [3], 0.185 µM; in experiment [4] it was 0.17 µM; in experiment [5], 0.0615 µM; in [6], 0.125 µM. Besides, the GI50 in experiment [7] was 0.173 µM; in experiment [8], 0.447 µM; in [9], 0.172 µM; in experiment [10] it was 0.138 µM. In addition, the TGI in experiment [1] is 0.746 µM; in experiment [2] it was 0.543 µM; in experiment [3], 0.437 µM; in experiment [4] it was 0.326 µM; in [5] it was 0.288 µM; in experiment [6] it was 0.286 µM. Besides, the TGI in experiment [7] was determined as 0.319 µM; in [8], 1.64 µM; in experiment [9], 0.356 µM; in experiment [10], 0.426 µM.
For the compound `CCOC(CN=c1nc(N(C)C)ss1)OCC`, the TGI in [1] is above 100 µM; in experiment [2] it was 43.8 µM; in experiment [3], 36 µM; in experiment [4] it was 59.8 µM; in experiment [5], 8.54 µM; in [6] it was 39.7 µM. Further, the TGI in [7] was 63.3 µM; in experiment [8], above 100 µM; in experiment [9] it was 78.4 µM; in experiment [10], 31.2 µM.
